Read-outs that look alike come from different tables or passages of the source.
How the values were obtained:
[1] = test system: Human Gastric Cancer Cell KATO-3 (FGFR2 Amplification); assay: MTT proliferation inhibition, KATO-3 cells; assay type: cell-based
Text: The pharmacodynamic action of the compound of the present invention in terms of inhibiting the proliferation of cancer cells may be determined by conventional methods. […] Inhibition ratio (%)=[(blank control OD−inhibitor OD)/blank control OD]×100%
(§1) Blank control OD: the OD value of the well of normally grew cells without the action of a drug.
(§2) Inhibitor OD: the OD value of the well of cells with the action of the added compounds to be screened.
(§3) The median inhibitory concentration (IC50) value is obtained by the software GraphPad Prism 5.0 by the 4-parameter logistic curve fit calculation. Each experiment is repeated three times, and the average IC50 value for three experiments is used as the final index for the inhibitory ability.
(§4) Proliferation Inhibition Effect on Human Acute Myelogenous Leukemia Cell KG-1α (FGFR1 Insertion Mutation), Human Gastric Cancer Cell KATO-3 (FGFR2 Amplification), Human Multiple Myeloma Cell KMS-11 (FGFR3 Y373C Mutation)
(§5) Cells in the logarithmic phase were inoculated to 96-well culture plates (cell density: 3000/well for KATO-3, 9000/well for KG-1α, 3000/well for KMS-11, cell suspension: 180 μl/well), and cultured at 37° C. under 5% CO2 for 24 hours. After the culturing, the cells adhered to the well walls. Each of compounds was dissolved in DMSO in advance to formulate a 10 mM stock solution. Upon testing, the stock solution was diluted with complete medium to 10 times the target concentration in another 96-cell plate. And then the compound was added at 20 μl/cell in the 96-well plate in which the cells were inoculated, i.e. the target concentration could be reached. The well for each concentration was triplicated, and the blank control was established. Cells continued to be cultured at 37° C. under 5% CO2 for 72 hours. After the drug acted for 72 hours, 20 μl of Thiazolyl Blue, i.e., MTT was added to each of wells. MTT was dissolved in a phosphate buffer solution free of Ca and Mg ions (D-PBSA) to formulate a 0.5% stock solution in advance. The stock solution was filtered and sterilized. Cells continued to be cultured at 37° C. under 5% CO2 for 4 hours. After 4 hours from the addition of MTT, 100 μl of 14% dimethylformamide-sodium dodecyl sulfate (DMF-SDS) was added to and dissolved in each of wells. Cells were cultured at 37° C. for 3-4 hours, and detected for the light density value (OD) at a wavelength of 570 nm. The inhibition rate was calculated based on the collected data.

[2] = test system: Human Acute Myelogenous Leukemia Cell KG-1α (FGFR1 Insertion Mutation); assay: MTT proliferation inhibition, KG-1α cells; assay type: cell-based; conditions: 72 hours drug exposure
Protocol: (§6) The pharmacodynamic action of the compound of the present invention in terms of inhibiting the proliferation of cancer cells may be determined by conventional methods. One preferable evaluation method is MTT (Thiazolyl Blue) cell activity assay, in which the change in optical absorption value generated after the drug has acted on the cancer cells is measured, and the inhibition ratio of a drug against the proliferation of cancer cells is calculated. Inhibition ratio (%)=[(blank control OD−inhibitor OD)/blank control OD]×100%
as §1, §2, §3, §4, §5

[3] = test system: subcutaneously transplanted tumors of human bladder cancer RT112/84; assay: Growth of subcutaneously transplanted tumors in RT112/84-bearing nude mice; assay type: in vivo, BALB/c nude mice; conditions: p.o., 14 days, I-5 15 or 25 mg/kg QD, I-13 50 mg/kg BID, BGJ398 15 mg/kg QD, FIG. 1
Text: The pharmacodynamic action of the compound of the present invention in terms of inhibiting the growth of transplantation tumor in animal may be assayed by conventional methods. One preferable evaluation method involves the inhibitory effect on the growth of subcutaneously transplantation tumor of human bladder cancer RT112/84-bearing nude mice. The experimental method is as follows: 5×10^6 human bladder cancer RT112/84 cells are inoculated to nude mice subcutaneously at the right side of the back thereof, and each mouse is inoculated with 0.1 ml. After the tumors grow to 100-150 mm^3 on average, the animals are divided into groups randomly according to the tumor size and the animal weight. […] During the entire experimental process, the animal weight and the tumor size are measured twice per week, so as to observe whether or not the toxic reaction occurs.
The tumor volume is calculated as follows: Tumor volume (mm^3)=0.5×(Tumor major diameter×Tumor minor diameter^2) Body weight change rate (%)=measured body weight/body weight before administration×100%. […]
Cell cultivation: RT112/84 cells were placed in a MEM medium containing 10% fetal bovine serum (FBS) and 1% non-essential amino acid (NEAA), and cultivated in a temperature-constant incubator containing 5% CO2 at 37° C. The cells in exponential growth phase were collected and counted for inoculation. […]

[4] = test system: Human Multiple Myeloma Cell KMS-11 (FGFR3 Y373C Mutation); assay: MTT proliferation inhibition, KMS-11 cells; assay type: cell-based; conditions: 72 hours drug exposure
Protocol: as §6, §1, §2
The median inhibitory concentration (IC50) value is obtained by the software GraphPad Prism 5.0 by the 4-parameter logistic curve fit calculation. […]
Cells in the logarithmic phase were inoculated to 96-well culture plates (cell density: 3000/well for KATO-3, 9000/well for KG-1α, 3000/well for KMS-11, cell suspension: 180 μl/well), and cultured at 37° C. under 5% CO2 for 24 hours. […] Cells were cultured at 37° C. for 3-4 hours, and detected for the light density value (OD) at a wavelength of 570 nm. The inhibition rate was calculated based on the collected data.

[5] = KATO3, MTT, 72 hours drug exposure, KATO-3 cells, read-out: KATo-3 (FGFR2 amplification) IC50
[6] = KATO3, 72 h, read-out: KATo-3 (FGFR2 amplification) IC50 (nM)

| IC50 [1, 5] | IC50 ([2]; Homo sapiens) | Molecule | IC50 [1, 6] | further results |
| --- | --- | --- | --- | --- |
| 12 nM | 5 nM | CCN1CCN(c2ccc(Nc3ncc4c(n3)CCN(c3c(Cl)c(OC)cc(OC)c3Cl)C4)cc2)CC1 [Compound I-1, 6-(2,6-dichloro-3,5-dimethoxyphenyl)-N-(4-(4-ethylpiperazin-1-yl)phenyl)-5,6,7,8-tetrahydropyrido[4,3-d]pyrimidin-2-amine] |  |  |
| 6 nM | 18 nM | CCN1CCN(c2ccc(Nc3ncc4c(n3)CCN(c3c(Cl)c(OC)cc(OC)c3Cl)C4)cc2)C(=O)C1 [Compound I-7] |  |  |
| 4 nM | 5 nM | CCN1CCN(c2ccc(Nc3ncc4c(n3)CCN(c3c(Cl)c(OC)cc(OC)c3Cl)C4)cn2)CC1 [Compound I-8, 6-(2,6-dichloro-3,5-dimethoxyphenyl)-N-(6-(4-ethylpiperazin-1-yl)pyridin-3-yl)-5,6,7,8-tetrahydropyrido[4,3-d]pyrimidin-2-amine] |  |  |
| 21 nM | 12 nM | COc1cc(OC)c(Cl)c(N2CCc3nc(Nc4ccc(N5CCC(N(C)C)CC5)nc4)ncc3C2)c1Cl [Compound I-9, 6-(2,6-dichloro-3,5-dimethoxyphenyl)-N-(6-(4-(dimethylamino)piperidin-1-yl)pyridin-3-yl)-5,6,7,8-tetrahydropyrido[4,3-d]pyrimidin-2-amine] |  | IC50 ([4]; Homo sapiens): 200 nM |
| 7 nM | 24 nM | CCN1CCN(c2ccc(Nc3ncc4c(n3)CCN(c3c(Cl)c(OC)cc(OC)c3Cl)C4)cc2OC)CC1 [Compound I-10, 6-(2,6-dichloro-3,5-dimethoxyphenyl)-N-(4-(4-ethylpiperazin-1-yl)-3-methoxyphenyl)-5,6,7,8-tetrahydropyrido[4,3-d]pyrimidin-2-amine] |  |  |
| 4 nM | 8 nM | CCN1CCN(c2ccc(Nc3ncc4c(n3)CCN(c3cc(C(=O)NC)cc(OC)c3Cl)C4)cn2)CC1 [Compound I-11, 4-chloro-3-(2-(6-(4-ethylpiperazin-1-yl)pyridin-3-ylamino)-7,8dihydropyrido[4,3-d]pyrimidin-6(5H)-yl)-5-methoxy-N-methylbenzamide] |  |  |
| 3 nM | 6 nM | CNC(=O)c1cc(OC)c(Cl)c(N2CCc3nc(Nc4ccc(N5CCC(N(C)C)CC5)cc4)ncc3C2)c1 [Compound I-13] |  |  |
| 23 nM | 15 nM | COc1cc(OC)c(Cl)c(N2CCc3nc(Nc4ccc(N5CCN(CCO)CC5)nc4)ncc3C2)c1Cl [Compound I-14, 2-(4-(5-(6-(2,6-dichloro-3,5-dimethoxyphenyl)-5,6,7,8-tetrahydropyrido[4,3-d]pyrimidin-2-ylamino)pyridin-2-yl)piperazin-1-yl)ethanol] |  |  |
| 3 nM | 2 nM | COc1cc(OC)c(Cl)c(N2CCc3nc(Nc4ccc(N5CCC(N(C)C)CC5)cc4)ncc3C2)c1F [Compound I-15, 6-(2-fluoro-6-chloro-3,5-dimethoxyphenyl)-N-(4-(4-(dimethylamino)piperidin-1-yl)phenyl)-5,6,7,8-tetrahydropyrido[4,3-d]pyrimidin-2-amine] |  |  |
|  |  | AZD4547 [reference compound] |  | IC50 [2]: 7 nM; IC50 [4]: 200 nM |

| Molecule | IC50 [1, 5] | IC50 ([2]; Homo sapiens) | IC50 [1, 6] | further results |
| --- | --- | --- | --- | --- |
| COc1cc(OC)c(Cl)c(N2CCc3nc(Nc4ccc(N5CCN(CC(F)(F)F)CC5)cc4)ncc3C2)c1Cl [Compound I-2, 6-(2,6-dichloro-3,5-dimethoxyphenyl)-N-(4-(4-(2,2,2-trifluoroethyl)piperazin-1-yl)phenyl)-5,6,7,8-tetrahydropyrido[4,3-d]pyrimidin-2-amine] |  | 7 nM | 45 nM |  |
| COc1cc(OC)c(Cl)c(N2CCc3nc(Nc4ccc(N5CCN(CCO)CC5)cc4)ncc3C2)c1Cl [Compound I-3, 2-(4-(4-(6-(2,6-dichloro-3,5-dimethoxyphenyl)-5,6,7,8-tetrahydropyrido[4,3-d]pyrimidin-2-ylamino)phenyl)piperazin-1-yl)ethanol] |  | 1 nM | 8 nM |  |
| COc1cc(OC)c(Cl)c(N2CCc3nc(Nc4ccc(N5CCN(CCN(C)C)CC5)cc4)ncc3C2)c1Cl [Compound I-4, 6-(2,6-dichloro-3,5-dimethoxyphenyl)-N-(4-(4-(2-(dimethylamino)ethyl)piperazin-1-yl)phenyl)-5,6,7,8-tetrahydropyrido[4,3-d]pyrimidin-2-amine] |  | 2 nM | 30 nM |  |
| COc1cc(OC)c(Cl)c(N2CCc3nc(Nc4ccc(N5CCC(N(C)C)CC5)cc4)ncc3C2)c1Cl [Compound I-5, 6-(2,6-dichloro-3,5-dimethoxyphenyl)-N-(4-(4-(dimethylamino)piperidin-1-yl)phenyl)-5,6,7,8-tetrahydropyrido[4,3-d]pyrimidin-2-amine] |  | 2 nM | 4 nM | inhibition effect on the growth of subcutaneously transplanted tumors (tumor volume) [3]: better inhibition effect than BGJ398 |
| COc1cc(OC)c(Cl)c(N2CCc3nc(Nc4ccc(N5CCN(C6CC6)CC5)cc4)ncc3C2)c1Cl [Compound I-6, 6-(2,6-dichloro-3,5-dimethoxyphenyl)-N-(4-(4-cyclopropylpiperazin-1-yl)phenyl)-5,6,7,8-tetrahydropyrido[4,3-d]pyrimidin-2-amine] |  | 3 nM | 11 nM |  |

From patent US10544144B2, “Fused pyrimidine piperidine cyclic derivative, preparation process and use thereof” (SHANGHAI ALLIST PHARMACEUTICAL AND MEDICAL TECHNOLOGY …, priority 2016, dated 2020)
